In article PMC5394417, “Investigating the molecular mechanism of positive and negative allosteric modulators in the calcium-sensing receptor dimer” (Scientific Reports, 2017):
Several values for one entry are separate records, joined by “and”; a condition that tells them apart may be missing. Identical values can stand only once.

Columns and labels:
[1] = target: T1, HA-S170A CaSR mutant (ATD mutant) (Rattus norvegicus, UniProt P48442, S170A); experiment: IP-One assay, HEK293T transiently transfected; format: cell-based
T1 construct: mGluR5 signal peptide (N); expressed in transfected cells; host or cells: HEK293T
T1 sequence (P48442 20-1079 S170A): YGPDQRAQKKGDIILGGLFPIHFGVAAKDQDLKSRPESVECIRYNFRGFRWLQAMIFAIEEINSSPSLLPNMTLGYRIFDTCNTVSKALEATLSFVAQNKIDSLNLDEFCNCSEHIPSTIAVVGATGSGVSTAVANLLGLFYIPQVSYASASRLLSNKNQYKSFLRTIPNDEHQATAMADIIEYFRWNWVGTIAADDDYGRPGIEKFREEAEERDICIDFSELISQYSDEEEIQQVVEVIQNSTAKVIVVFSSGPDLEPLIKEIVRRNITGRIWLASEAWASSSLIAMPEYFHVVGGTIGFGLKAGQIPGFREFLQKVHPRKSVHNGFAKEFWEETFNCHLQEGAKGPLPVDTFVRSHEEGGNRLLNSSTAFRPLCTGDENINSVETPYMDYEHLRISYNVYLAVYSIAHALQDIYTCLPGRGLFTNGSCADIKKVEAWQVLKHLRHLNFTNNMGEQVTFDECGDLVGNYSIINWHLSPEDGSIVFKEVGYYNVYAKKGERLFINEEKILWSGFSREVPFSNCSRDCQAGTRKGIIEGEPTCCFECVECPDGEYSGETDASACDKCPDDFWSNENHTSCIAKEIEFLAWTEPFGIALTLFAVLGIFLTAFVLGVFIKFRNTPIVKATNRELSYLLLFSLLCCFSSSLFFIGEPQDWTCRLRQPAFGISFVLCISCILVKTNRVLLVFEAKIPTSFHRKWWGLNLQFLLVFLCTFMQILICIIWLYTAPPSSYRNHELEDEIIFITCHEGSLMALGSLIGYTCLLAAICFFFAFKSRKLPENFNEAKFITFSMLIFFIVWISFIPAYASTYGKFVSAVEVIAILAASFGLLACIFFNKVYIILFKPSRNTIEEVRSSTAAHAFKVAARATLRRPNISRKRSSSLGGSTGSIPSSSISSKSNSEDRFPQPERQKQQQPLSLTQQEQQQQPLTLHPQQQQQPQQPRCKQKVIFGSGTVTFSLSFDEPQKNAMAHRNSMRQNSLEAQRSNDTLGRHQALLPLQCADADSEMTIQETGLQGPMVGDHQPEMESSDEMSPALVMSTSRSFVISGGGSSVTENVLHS
Description: (§1) Human embryonic kidney (HEK) 293T cells were cultured in DMEM supplemented with 10% dFBS and 1% P/S at 37 °C and 5% CO2. 48 h prior to assay, transient transfection was performed using Lipofectamine 2000 as the transfection reagent. White opaque 96-well culture plates (PerkinElmer, Waltham, MA, USA) were used for the ELISA and the TR-FRET dimerization assay, while clear tissue culture treated 96-well plates (Corning, Corning, NY, USA) were used for the IP-One assay. Both plate types were coated with poly-D-lysine before addition of cells and transfection mix. 0.25 μl/well of Lipofectamine 2000 were diluted in 25 μl/well of Opti-MEM and incubated at room temperature (RT) for 5 min. 0.03 μg/well of DNA was diluted in 25 μl/well of Opti-MEM, and subsequently mixed with the Lipofectamine 2000 dilution and incubated 20 min at RT before addition to the plates. Cell suspensions of 170.000 HEK293T cells/mL were prepared in complete growth medium and 100 μl/well (17.000 cells/well) was added to the plates, which were incubated for 48 h at 37 °C and 5% CO2 before performing assays.
(§2) Functional activity was measured using the IP-One assay, which is an IP1 accumulation assay. For agonist testing, ligands were prepared in final concentrations in ligand buffer (HBSS, 20 mM HEPES, pH 7.4 supplemented with 20 mM LiCl). Cells were washed once with 100 μl/well of assay buffer (HBSS, 20 mM HEPES, pH 7.4) and 50 μl/well of agonist solution was added after which plates were incubated at 37 °C for 30 min. Subsequently, ligand solutions were removed and cells were washed with 100 μl/well of assay buffer. Cell lysis was performed by addition of 30 μl/well of IP-One Conjugate & Lysis Buffer (Cisbio Bioassays, Codolet, France) and plates were incubated at RT for 30 min. Afterwards, 30 μl/well of assay buffer was added to dilute the cell lysate. 10 μl/well of cell lysate was transferred from the 96-well plate to a 384-well Optiplate and 10 μl/well of detection solution (Assay buffer + 2.5% of anti-IP1 antibody cryptate Terbium conjugate + 2.5% IP1-d2 conjugate (Cisbio Bioassays, Codolet, France)) was also added. The 384-well plate was incubated for 1 h at RT in dark before being measured on an EnVision plate reader (PerkinElmer, Waltham, MA, USA). Upon excitation at 340 nm, emission at 615 nm and 665 nm was measured, and the FRET ratio (665 nm/615 nm) was converted to IP1 concentrations by interpolating values from an IP1 standard curve generated from a provided IP1 calibrator (Cisbio Bioassays, Codolet, France). When testing allosteric modulators, cells were pre-incubated for 30 min at 37 °C with 50 μl/well of ligand buffer supplemented with allosteric modulator and a final concentration of 1% DMSO. Afterwards, the buffer solution was removed and 50 μl/well of agonist solution in ligand buffer supplemented with allosteric modulator and a final concentration of 1% DMSO was added. Plates were incubated for 30 min at 37 °C followed by one wash in 100 μl/well of assay buffer. Cell lysis and detection was performed as described above.

[2] = target: T2, S170A/E837A:F801A heterodimer (Rattus norvegicus, UniProt P48442, E837A/F801A/S170A); experiment: IP-One trans-activation assay, co-expression 1:1 in HEK293T; format: cell-based
T2 construct: mGluR5 signal peptide (N); expressed in transfected cells; host or cells: HEK293T
Description: as §1, §2

T2 sequence (P48442 20-1079 S170A/E837A): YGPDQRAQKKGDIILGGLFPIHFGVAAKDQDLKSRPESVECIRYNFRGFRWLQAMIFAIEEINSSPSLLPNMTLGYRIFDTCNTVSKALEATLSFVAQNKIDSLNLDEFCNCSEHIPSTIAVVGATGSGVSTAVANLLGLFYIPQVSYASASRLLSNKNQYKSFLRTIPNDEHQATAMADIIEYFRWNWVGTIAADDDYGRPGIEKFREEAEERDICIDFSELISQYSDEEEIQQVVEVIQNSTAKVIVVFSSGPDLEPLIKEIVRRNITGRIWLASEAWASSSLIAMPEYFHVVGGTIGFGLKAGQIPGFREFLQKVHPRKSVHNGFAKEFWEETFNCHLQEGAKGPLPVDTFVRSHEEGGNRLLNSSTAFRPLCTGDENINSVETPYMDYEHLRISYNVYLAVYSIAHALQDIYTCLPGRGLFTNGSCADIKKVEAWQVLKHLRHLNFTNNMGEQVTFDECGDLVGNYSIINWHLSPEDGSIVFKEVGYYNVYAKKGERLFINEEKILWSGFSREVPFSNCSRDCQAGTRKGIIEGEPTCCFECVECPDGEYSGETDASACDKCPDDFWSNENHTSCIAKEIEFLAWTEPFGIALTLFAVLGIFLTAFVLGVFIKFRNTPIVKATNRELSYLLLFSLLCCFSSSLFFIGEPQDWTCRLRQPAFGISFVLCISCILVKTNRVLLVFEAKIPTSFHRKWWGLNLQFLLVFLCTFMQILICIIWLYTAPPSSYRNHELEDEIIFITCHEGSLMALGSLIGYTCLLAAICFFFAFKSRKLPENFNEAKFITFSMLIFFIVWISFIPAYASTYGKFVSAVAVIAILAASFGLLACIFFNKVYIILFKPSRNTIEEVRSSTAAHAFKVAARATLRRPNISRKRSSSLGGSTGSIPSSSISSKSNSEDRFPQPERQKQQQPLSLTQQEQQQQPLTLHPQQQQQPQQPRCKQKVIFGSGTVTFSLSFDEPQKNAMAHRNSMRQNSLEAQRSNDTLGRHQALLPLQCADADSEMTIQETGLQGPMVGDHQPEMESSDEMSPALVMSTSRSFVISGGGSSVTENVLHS
T2 sequence (P48442 20-1079 F801A): as the sequence (P48442 20-1079 S170A/E837A) above, with A151S, F782A, A818E counted along it

SMILES | EC50 ([1]; HA-S170A, Ca^2+ alone) | Max ± S.E.M. ([1]; HA-S170A, normalized to maximum response of WT CaSR, at highest tested Ca^2+ concentration) | potentiation of Ca^2+-mediated response ([2]; S170A/E837A:F801A heterodimer, 0.05, 0.1 and 1 μM NPS R-568) | effect on Ca^2+-mediated response ([2]; S170A/E837A:F801A heterodimer, highest tested concentration of NPS R-568 (1 μM)) | potentiation of Ca^2+-mediated response ([1]; S170A co-expressed with pEGFPN1, 23 mM Ca^2+, 0.05, 0.1 and 1 μM NPS R-568)
[Ca+2] [Ca^2+] | > 45 mM | 17% and 17 ± 0.7% |  |  | 
COc1cccc([C@@H](C)NCCCc2ccccc2Cl)c1.Cl [NPS R-568, NPS R-568 hydrochloride] |  |  | no potentiation was observed | inhibited | concentration-dependent potentiation
